Source: patent US20240238304A1, “Small Molecule Degraders of DOT1L and Uses Thereof” (Northwestern University, priority 2022, published 2024)

The compounds below were run against T1, DOT1L (Homo sapiens, UniProt Q8TEK3) (assay: Screening of PROTAC degraders of DOT1L: western blotting of nuclear extract). Settings: 1 μM, 48 h (2 days) treatment, LNCaP cell line, Lamin B loading control.
T1 construct: nuclear protein was extracted using NE-PER Nuclear and Cytoplasmic Extraction Reagents; endogenous in cells; host or cells: LNCaP
T1 sequence (Q8TEK3 whole entry): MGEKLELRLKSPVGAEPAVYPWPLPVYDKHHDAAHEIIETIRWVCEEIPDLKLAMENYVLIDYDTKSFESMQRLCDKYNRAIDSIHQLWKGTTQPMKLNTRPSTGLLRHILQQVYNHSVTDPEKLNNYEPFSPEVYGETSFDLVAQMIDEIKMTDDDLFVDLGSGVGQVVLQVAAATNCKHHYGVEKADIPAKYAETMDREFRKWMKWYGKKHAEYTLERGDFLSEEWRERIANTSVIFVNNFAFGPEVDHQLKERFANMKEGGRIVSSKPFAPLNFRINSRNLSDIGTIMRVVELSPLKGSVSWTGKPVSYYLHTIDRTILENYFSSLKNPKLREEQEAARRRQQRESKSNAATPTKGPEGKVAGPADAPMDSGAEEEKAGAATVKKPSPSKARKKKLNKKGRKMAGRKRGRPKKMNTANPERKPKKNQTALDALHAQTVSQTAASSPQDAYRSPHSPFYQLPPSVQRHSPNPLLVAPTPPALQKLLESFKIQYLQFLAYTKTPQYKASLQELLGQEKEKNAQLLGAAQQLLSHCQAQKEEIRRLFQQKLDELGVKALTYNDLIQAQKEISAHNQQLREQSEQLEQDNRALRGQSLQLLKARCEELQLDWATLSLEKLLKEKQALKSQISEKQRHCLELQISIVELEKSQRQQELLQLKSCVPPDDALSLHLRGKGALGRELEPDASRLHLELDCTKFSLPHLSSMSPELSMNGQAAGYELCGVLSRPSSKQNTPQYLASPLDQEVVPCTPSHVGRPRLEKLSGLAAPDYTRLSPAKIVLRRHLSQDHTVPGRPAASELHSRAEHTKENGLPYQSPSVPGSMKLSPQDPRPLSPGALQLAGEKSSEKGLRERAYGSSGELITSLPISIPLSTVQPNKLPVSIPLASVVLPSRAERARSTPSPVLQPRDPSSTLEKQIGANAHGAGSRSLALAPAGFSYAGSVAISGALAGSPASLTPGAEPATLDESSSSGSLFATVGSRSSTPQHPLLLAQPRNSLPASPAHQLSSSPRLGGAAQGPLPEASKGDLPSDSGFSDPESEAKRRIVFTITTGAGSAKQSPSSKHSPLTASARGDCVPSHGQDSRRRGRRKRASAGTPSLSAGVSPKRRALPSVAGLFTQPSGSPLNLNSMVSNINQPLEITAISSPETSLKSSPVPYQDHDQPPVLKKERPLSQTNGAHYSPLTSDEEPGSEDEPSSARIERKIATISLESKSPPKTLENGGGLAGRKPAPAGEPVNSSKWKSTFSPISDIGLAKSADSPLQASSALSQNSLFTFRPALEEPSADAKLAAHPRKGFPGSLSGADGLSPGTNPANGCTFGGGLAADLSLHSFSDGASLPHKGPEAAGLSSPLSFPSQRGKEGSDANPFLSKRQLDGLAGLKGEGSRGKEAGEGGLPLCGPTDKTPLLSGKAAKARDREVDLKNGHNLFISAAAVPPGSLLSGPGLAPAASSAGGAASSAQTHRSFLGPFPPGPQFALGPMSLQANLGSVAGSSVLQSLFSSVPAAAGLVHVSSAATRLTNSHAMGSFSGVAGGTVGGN
Format: cell-based
Experimental: LNCaP cells were cultured in complete RPMI1640 media. 70-80% confluent of cells were treated with 1 μM PROTAC degraders of DOT1L (Group A-D), 1 μM parent compound 534, 1 μM EPZ5676, and DMSO (Vehicle) for 48 h. Then, nuclear protein was extracted using NE-PER Nuclear and Cytoplasmic Extraction Reagents (Thermo Scientific 78833) followed by western blotting. Protein band intensity was measured by Image J.
(§1) Nuclear protein extracts were separated by Bolt™ 4-12% Bis-Tris Plus Gels (Invitrogen) and transferred to PVDF membranes by wet transfer. The membranes were blocked with 5% Blotting-Grade Blocker (Bio-Rad) in Tris-buffered saline with 0.5% Tween 20 (TBST) for 1 h at room temperature, and then incubated overnight at 4° C. in blocking buffer with primary antibody including rabbit DOT1L (D1W4Z) mAb1:3000 (CellSignalingTechnology, Cat #77087) and goat lamin B(C-20) pAb 1:1000 (Santa Cruz Biotechnology, Cat #sc-6216). After incubation with HRP-conjugated goat anti-rabbit secondary antibody 1:10,000 (Bio-Rad, Cat #170-6515) or HRP-conjugated donkey anti-goat secondary antibody 1:3000 (Santa Cruz Biotechnology, Cat #sc-2020) for 1 h, the membranes were detected using Super Signal West Femto (Thermo Fisher Scientific, Cat #34096).

Structure (SMILES)	DOT1L degradation (western blot, nuclear extraction)
COc1nc(Nc2cc(S(C)(=O)=O)ccc2N[C@@H](c2cccc3c2OC(F)(F)O3)c2ncccc2Cl)nc(N2CCNCC2)n1 [Compound 534]	didn't degrade DOT1L protein
COc1nc(Nc2cc(S(C)(=O)=O)ccc2N[C@@H](c2cccc3c2OC(F)(F)O3)c2ncccc2Cl)nc(N2CCN(CCOCCNC(=O)COc3cccc4c3C(=O)N(C3CCC(=O)NC3=O)C4=O)CC2)n1 (stereo partly drawn) [Compound 588]	accelerated the most DOT1L degradation
CC(C)N(C[C@H]1O[C@@H](n2cnc3c(N)ncnc32)[C@H](O)[C@@H]1O)[C@H]1C[C@@H](CCc2nc3cc(C(C)(C)C)ccc3[nH]2)C1 [EPZ5676, reference compound]	didn't degrade DOT1L protein

The compounds below were run against T1, DOT1L (assay: Time-course analysis of DOT1L degradation: western blotting of nuclear extract). Settings: 1 μM, multiple time points 1 h to 72 h, LNCaP cell line, nuclear extraction.
Format: cell-based
Experimental: LNCaP cells were culturedincompleteRPMIl640 media. 70-80% confluent of cells were treated with 1 μM 705 (Group D), 1 μM 588 (Group A), 1 μM 593 (Group C), 1uM 534 (parent), 1 μM EPZ5676, and DMSO for 1 h, 2 h, 6 h, 24 h, 48 h, and 72 h. Then, nuclear protein was extracted using NE-PER Nuclear and Cytoplasmic Extraction Reagents (Thermo Scientific 78833) followed by western blotting. Protein band intensity was measured by Image J.
as §1

Structure (SMILES)	DOT1L degradation over time (order of degradation)
COc1nc(Nc2cc(S(C)(=O)=O)ccc2N[C@@H](c2cccc3c2OC(F)(F)O3)c2ncccc2Cl)nc(N2CCNCC2)n1 [Compound 534]	didn't degrade DOT1L until 72 h
COc1nc(Nc2cc(S(C)(=O)=O)ccc2N[C@@H](c2cccc3c2OC(F)(F)O3)c2ncccc2Cl)nc(N2CCN(CCOCCNC(=O)COc3cccc4c3C(=O)N(C3CCC(=O)NC3=O)C4=O)CC2)n1 (stereo partly drawn) [Compound 588]	degraded DOT1L protein in this order
CC(C)N(C[C@H]1O[C@@H](n2cnc3c(N)ncnc32)[C@H](O)[C@@H]1O)[C@H]1C[C@@H](CCc2nc3cc(C(C)(C)C)ccc3[nH]2)C1 [EPZ5676, reference compound]	didn't degrade DOT1L until 72 h
